# Assay results from patent US20260217767A1, “NOVEL A4B7 THIOETHER PEPTIDE DIMER ANTAGONISTS” (Protagonist Therapeutics, Inc., priority 2014, published 2026).
# Several values for one entry are separate records, joined by “and”; a condition that tells them apart may be missing. Equal values may be shown once. *1 amine or outer side, *2 acyl side, *3 side chain or, on linkers, in order; H or OH if unused. Where a SMILES comes first, the peptide text is derived from it. Bridges are numbered along the chain shown (N, C = ends). Roman numbers before positions name the chains, in order. [ ]: non-standard residue; d: D form. Bip = N[C@@H](Cc1ccc(-c2ccccc2)cc1)C(=O)O; 1Nal = N[C@@H](Cc1cccc2ccccc12)C(=O)O; Diglycolyl = O=C(COCC(=O)[*:2])[*:1]; NMeR = CN[C@@H](CCCNC(=N)N)C(=O)O; Tic = O=C(O)[C@@H]1Cc2ccccc2CN1; β3hE = N[C@@H](CCC(=O)O)CC(=O)O; X1 = O=C(c1ccccc1C[*:2])[*:1]; Pen = CC(C)(S)[C@H](N)C(=O)O
# How the values were obtained:
# α4β1 = biological target: T1, α4β1 (Homo sapiens, UniProt P05556+P13612); experiment: α4β1-VCAM Competition ELISA; type: binding; details: thioether peptide dimers, Table 7; read-out: ELISA A4B1
# T1 construct: purchased R&D Systems 5668-A4
# T1 sequence (P13612 34-977 limits assumed): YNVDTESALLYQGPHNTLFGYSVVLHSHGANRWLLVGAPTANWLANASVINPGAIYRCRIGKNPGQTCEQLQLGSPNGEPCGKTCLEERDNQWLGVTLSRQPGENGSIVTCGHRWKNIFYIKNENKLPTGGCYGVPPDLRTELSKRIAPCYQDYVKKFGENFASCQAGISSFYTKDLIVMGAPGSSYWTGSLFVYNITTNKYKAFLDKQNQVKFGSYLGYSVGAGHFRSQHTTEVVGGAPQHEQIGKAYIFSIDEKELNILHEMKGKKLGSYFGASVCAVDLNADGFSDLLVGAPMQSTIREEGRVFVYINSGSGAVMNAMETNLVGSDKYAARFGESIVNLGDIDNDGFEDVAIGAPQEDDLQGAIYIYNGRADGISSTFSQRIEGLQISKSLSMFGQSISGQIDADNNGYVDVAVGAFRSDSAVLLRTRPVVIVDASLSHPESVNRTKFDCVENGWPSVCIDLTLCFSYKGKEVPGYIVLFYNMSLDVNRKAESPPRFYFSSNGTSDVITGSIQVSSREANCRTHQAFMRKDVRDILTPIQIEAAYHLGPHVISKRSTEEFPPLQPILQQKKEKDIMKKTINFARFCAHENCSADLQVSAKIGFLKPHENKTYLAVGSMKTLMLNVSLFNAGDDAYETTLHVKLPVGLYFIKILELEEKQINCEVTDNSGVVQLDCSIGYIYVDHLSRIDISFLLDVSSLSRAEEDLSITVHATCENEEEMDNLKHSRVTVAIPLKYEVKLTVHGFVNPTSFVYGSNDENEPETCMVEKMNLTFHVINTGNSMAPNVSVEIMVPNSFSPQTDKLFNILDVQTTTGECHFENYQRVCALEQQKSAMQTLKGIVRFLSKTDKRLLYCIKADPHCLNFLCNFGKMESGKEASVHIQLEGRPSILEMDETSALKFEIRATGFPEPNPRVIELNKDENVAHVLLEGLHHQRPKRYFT
# T1 sequence (P05556 21-728 limits assumed): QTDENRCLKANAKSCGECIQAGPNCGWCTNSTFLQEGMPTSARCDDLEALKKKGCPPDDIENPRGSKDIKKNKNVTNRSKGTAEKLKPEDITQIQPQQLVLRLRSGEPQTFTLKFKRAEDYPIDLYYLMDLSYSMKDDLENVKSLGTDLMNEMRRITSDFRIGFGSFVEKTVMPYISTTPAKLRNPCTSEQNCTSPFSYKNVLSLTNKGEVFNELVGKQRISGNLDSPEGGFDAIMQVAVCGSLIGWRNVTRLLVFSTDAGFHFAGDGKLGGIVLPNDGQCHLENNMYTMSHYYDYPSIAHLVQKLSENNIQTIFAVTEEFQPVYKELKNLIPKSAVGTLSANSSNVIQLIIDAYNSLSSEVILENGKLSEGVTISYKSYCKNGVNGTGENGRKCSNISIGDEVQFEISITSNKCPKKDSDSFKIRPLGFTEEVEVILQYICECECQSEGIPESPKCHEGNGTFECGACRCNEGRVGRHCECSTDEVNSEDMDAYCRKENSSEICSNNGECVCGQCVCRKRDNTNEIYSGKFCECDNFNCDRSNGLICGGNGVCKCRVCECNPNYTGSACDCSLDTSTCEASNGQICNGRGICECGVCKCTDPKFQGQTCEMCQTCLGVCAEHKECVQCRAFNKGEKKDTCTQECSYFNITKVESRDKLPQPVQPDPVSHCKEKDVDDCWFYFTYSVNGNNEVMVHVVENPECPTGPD
# How it was run: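 rh VCAM-1-Fc coated plates; α4β1 (final 60 nM) and peptide (final 100 μM) incubated 2 h at 37° C. in 50 mM Tris-HCl pH 7.6, 100 mM NaCl, 1 mM MnCl2 or MgCl2, 0.05% Tween-20. Bound integrin detected with anti-CD49d 9F10 and HRP anti-mouse IgG, TMB read at 450 nm.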
# Jurkat E6.1 cells = Jurkat E6.1 cells (Homo sapiens, UniProt P05556+P13612); experiment: α4β1-VCAM Cell Adhesion Assay; type: cell-based; details: thioether peptide dimers, Table 7; read-out: Cell Adhesion A4B1
# Sequence of Jurkat E6.1 cells (P13612 34-1032): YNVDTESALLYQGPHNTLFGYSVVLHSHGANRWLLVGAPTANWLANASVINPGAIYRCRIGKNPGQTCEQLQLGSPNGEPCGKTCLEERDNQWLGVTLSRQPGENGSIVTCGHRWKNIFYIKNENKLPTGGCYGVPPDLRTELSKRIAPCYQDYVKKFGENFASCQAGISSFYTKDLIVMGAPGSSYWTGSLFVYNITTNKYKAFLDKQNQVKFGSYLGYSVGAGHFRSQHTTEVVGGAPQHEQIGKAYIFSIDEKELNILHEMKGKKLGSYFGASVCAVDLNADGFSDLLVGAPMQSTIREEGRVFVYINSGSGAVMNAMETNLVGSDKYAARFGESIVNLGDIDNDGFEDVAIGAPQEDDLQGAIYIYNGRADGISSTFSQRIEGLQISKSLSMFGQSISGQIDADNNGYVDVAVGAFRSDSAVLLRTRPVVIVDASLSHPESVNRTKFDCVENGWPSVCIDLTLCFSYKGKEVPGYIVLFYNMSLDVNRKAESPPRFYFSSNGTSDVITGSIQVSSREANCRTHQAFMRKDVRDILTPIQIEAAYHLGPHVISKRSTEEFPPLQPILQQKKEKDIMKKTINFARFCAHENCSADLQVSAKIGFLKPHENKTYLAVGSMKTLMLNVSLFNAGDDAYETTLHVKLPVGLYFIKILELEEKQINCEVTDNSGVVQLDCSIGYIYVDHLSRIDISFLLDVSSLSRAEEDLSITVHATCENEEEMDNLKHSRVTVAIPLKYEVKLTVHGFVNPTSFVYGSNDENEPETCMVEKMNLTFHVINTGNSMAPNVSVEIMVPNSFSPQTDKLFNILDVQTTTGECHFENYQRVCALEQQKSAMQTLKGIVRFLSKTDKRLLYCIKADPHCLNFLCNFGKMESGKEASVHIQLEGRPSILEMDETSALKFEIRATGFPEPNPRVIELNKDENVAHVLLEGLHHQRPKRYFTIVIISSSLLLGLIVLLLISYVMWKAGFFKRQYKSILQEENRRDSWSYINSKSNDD
# Sequence of Jurkat E6.1 cells (P05556 21-798): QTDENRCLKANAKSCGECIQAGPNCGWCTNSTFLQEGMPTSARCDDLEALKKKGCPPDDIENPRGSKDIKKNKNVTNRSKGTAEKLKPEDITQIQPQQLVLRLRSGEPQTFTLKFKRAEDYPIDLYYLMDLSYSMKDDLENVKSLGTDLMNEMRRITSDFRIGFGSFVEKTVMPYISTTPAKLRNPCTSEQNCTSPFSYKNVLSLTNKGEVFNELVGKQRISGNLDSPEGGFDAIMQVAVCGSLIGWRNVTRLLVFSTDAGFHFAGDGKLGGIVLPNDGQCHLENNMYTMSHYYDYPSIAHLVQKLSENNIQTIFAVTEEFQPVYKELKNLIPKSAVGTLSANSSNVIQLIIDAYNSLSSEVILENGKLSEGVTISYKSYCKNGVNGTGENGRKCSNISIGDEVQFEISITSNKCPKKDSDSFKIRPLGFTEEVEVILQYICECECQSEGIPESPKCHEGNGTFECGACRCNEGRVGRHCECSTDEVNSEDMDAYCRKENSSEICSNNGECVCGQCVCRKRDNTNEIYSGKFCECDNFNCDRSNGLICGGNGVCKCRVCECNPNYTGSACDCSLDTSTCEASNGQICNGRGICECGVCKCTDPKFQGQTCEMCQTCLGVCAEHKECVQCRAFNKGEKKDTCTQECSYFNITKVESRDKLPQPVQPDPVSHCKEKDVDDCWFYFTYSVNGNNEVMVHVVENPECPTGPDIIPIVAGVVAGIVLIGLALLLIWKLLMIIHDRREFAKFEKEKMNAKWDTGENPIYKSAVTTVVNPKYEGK
# Procedure: α4β1-VCAM Cell Adhesion Assay
# Jurkat E6.1 cells (Sigma #88042803) were cultured in RPMI 1640 HEPES medium (Invitrogen #22400-089) supplemented with 10% serum (Fetal Bovine Serum, Invitrogen #16140-071), 1 mM sodium pyruvate (Invitrogen #11360-070), 2 mM L-glutamine (Invitrogen #25030-081) and Penicillin-Streptomycin (Invitrogen #15140-122) at 100 units of penicillin and 100 μg of streptomycin per ml. The cells were washed two times in DMEM medium (ATCC #30-2002) supplemented with 0.1% BSA, 10 mM HEPES pH 7 and 1 mM MnCl2. The cells were re-suspended in supplemented DMEM medium at a density of 4×10^6 cells/ml.
# A Nunc MaxiSorp plate was coated with rh VCAM-1/CD106 Fc chimera (R&D #862-VC) at 400 ng per well in 50 μl per well in 1×PBS and incubated at 4° C. overnight. The solution was then removed by shaking, blocked with 250 μl per well PBS containing 1% BSA, and incubated at 37° C. for 1 hr. The solution was removed by shaking. Peptides were diluted by serial dilution in a final volume of 50 μl per well (2× concentration). To each well, 50 μl of cells (200,000 cells) were added and the plate was incubated at 37° C., 5% CO2 for 30-45 min to allow cell adhesion. The wells were washed manually three times (100 μl per wash) with supplemented DMEM. After the final wash, 100 μl/well of supplemented DMEM and 10 ul/well of MTT reagent (ATTC cat #30-1010K) were added. The plate was incubated at 37° C., 5% CO2 for 2-3 hrs until a purple precipitate is visible. 100 ul of Detergent Reagent (ATTC cat #30-1010K) is added to each well. The plate was covered from the light, wrapped in Parafilm to prevent evaporation, and left overnight at room temperature in the dark. The plate was shaken for 5 min and the absorbance at 570 nm is measured. To calculate the dose response, the absorbance value of control wells not containing cells was subtracted from each test well.
# [1] = Simulated Intestinal Fluid (SIF) Stability Assay; type: in vitro ADME; details: 37° C., dimers, Table 7; for half-life at 22 μM: simulated intestinal fluid (SIF) with 1% porcine pancreatin, pH 6.5, porcine pancreatin; for SIF (Porcine) (half-life, min) / half-life: porcine pancreatin
# How it was run: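 Percent peptide remaining over time was measured by LC-MS/MS as the peak-area ratio to internal standard, and a first-order decay fit gave half-life. Digests contained 22 μM peptide and 1% pancreatin in pH 6.5 FaSSIF buffer at 37° C. Aliquots were quenched in organic solvent with formic acid.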
Compound,IC50 (α4β1),IC50 (Jurkat E6.1 cells),half-life at 22 μM ([1]; pig),"SIF (Porcine) (half-life, min) [1]",half-life ([1]; pig),half-life ([1]; simulated gi fluid)
"CC(C)C[C@@H]1NC(=O)[C@H]([C@@H](C)O)NC(=O)[C@H](CC(=O)O)NC(=O)[C@H](CO)NC(=O)[C@H](CCCNC(=N)N)N(C)C(=O)c2ccccc2CSC(C)(C)[C@@H](C(=O)N[C@@H](Cc2ccc(-c3ccccc3)cc2)C(=O)N[C@H](CCC(=O)O)C(=O)N[C@H](CCCCN)C(N)=O)NC1=O [compound 178] (HELM PEPTIDE1{[meR].S.D.T.L.[Pen].[O=C([C@H](Cc1ccc(-c2ccccc2)cc1)N[*:1])[*:2]].[dE].[dK].[am]}|CHEM1{[O=C(c1ccccc1C[*:2])[*:1]]}$PEPTIDE1,CHEM1,1:R1-1:R1|PEPTIDE1,CHEM1,6:R3-1:R2$$$V2.0)",100 to 1000 nM,> 1000 nM,> 3 h,">180 (266), min and >180 min",–,–
"CC(C)C[C@@H]1NC(=O)[C@H]([C@@H](C)O)NC(=O)[C@H](CC(=O)O)NC(=O)[C@H](CO)NC(=O)[C@H](CCCNC(=N)N)N(C)C(=O)c2ccccc2CSC[C@@H](C(=O)N2Cc3ccccc3C[C@H]2C(=O)N[C@H](CCC(=O)O)C(=O)N[C@H](CCCCNC(=O)COCC(=O)NCCCC[C@@H](NC(=O)[C@@H](CCC(=O)O)NC(=O)[C@@H]2Cc3ccccc3CN2C(=O)[C@@H]2CSCc3ccccc3C(=O)N(C)[C@@H](CCCNC(=N)N)C(=O)N[C@@H](CO)C(=O)N[C@@H](CC(=O)O)C(=O)N[C@@H]([C@@H](C)O)C(=O)N[C@@H](CC(C)C)C(=O)N2)C(=O)O)C(=O)O)NC1=O [compound 207] (I: [NMeR]SDTLC[Tic][dE][dK]-OH / II: [NMeR]SDTLC[Tic][dE][dK]-OH; linker I:9-II:9 via Diglycolyl; linker I:N-I:6, II:N-II:6 via X1)",100 to 1000 nM,> 100000 nM,–,–,> 3 h,–
"CC(C)C[C@@H]1NC(=O)[C@H]([C@@H](C)O)NC(=O)[C@H](CC(=O)O)NC(=O)[C@H](CO)NC(=O)[C@H](CCCNC(=N)N)N(C)C(=O)c2ccccc2CSC(C)(C)[C@@H](C(=O)N[C@@H](Cc2c[nH]c3ccccc23)C(=O)N[C@H](CCC(=O)O)C(=O)N[C@H](CCCCNC(=O)COCC(=O)NCCCC[C@@H](NC(=O)[C@@H](CCC(=O)O)NC(=O)[C@H](Cc2c[nH]c3ccccc23)NC(=O)[C@H]2NC(=O)[C@H](CC(C)C)NC(=O)[C@H]([C@@H](C)O)NC(=O)[C@H](CC(=O)O)NC(=O)[C@H](CO)NC(=O)[C@H](CCCNC(=N)N)N(C)C(=O)c3ccccc3CSC2(C)C)C(=O)O)C(=O)O)NC1=O [compound 209] (I: [NMeR]SDTL[Pen]W[dE][dK]-OH / II: [NMeR]SDTL[Pen]W[dE][dK]-OH; linker I:9-II:9 via Diglycolyl; linker I:N-I:6, II:N-II:6 via X1)",100 to 1000 nM,> 100000 nM,–,–,> 3 h,–
"CC(C)C[C@@H]1NC(=O)[C@H]([C@@H](C)O)NC(=O)[C@H](CC(=O)O)NC(=O)[C@H](CO)NC(=O)[C@H](CCCNC(=N)N)N(C)C(=O)c2ccccc2CSC(C)(C)[C@@H](C(=O)N[C@@H](Cc2cccc3ccccc23)C(=O)N[C@@H](CCC(=O)O)C(=O)N[C@H](CCCCNC(=O)COCC(=O)NCCCC[C@@H](NC(=O)[C@H](CCC(=O)O)NC(=O)[C@H](Cc2cccc3ccccc23)NC(=O)[C@H]2NC(=O)[C@H](CC(C)C)NC(=O)[C@H]([C@@H](C)O)NC(=O)[C@H](CC(=O)O)NC(=O)[C@H](CO)NC(=O)[C@H](CCCNC(=N)N)N(C)C(=O)c3ccccc3CSC2(C)C)C(N)=O)C(N)=O)NC1=O [compound 167] (I: [NMeR]SDTL[Pen][1Nal]E[dK]-NH2 / II: [NMeR]SDTL[Pen][1Nal]E[dK]-NH2; linker I:9-II:9 via Diglycolyl; linker I:N-I:6, II:N-II:6 via X1)",25 to 100 nM,> 100000 nM,–,–,–,< 0.333 h
"CC(C)C[C@@H]1NC(=O)[C@H]([C@@H](C)O)NC(=O)[C@H](CC(=O)O)NC(=O)[C@H](CO)NC(=O)[C@H](CCCNC(=N)N)N(C)C(=O)c2ccccc2CSC[C@@H](C(=O)N2Cc3ccccc3C[C@H]2C(=O)N[C@H](CCC(=O)O)C(=O)N[C@H](CCCCNC(=O)COCC(=O)NCCCC[C@@H](NC(=O)[C@@H](CCC(=O)O)NC(=O)[C@@H]2Cc3ccccc3CN2C(=O)[C@@H]2CSCc3ccccc3C(=O)N(C)[C@@H](CCCNC(=N)N)C(=O)N[C@@H](CO)C(=O)N[C@@H](CC(=O)O)C(=O)N[C@@H]([C@@H](C)O)C(=O)N[C@@H](CC(C)C)C(=O)N2)C(N)=O)C(N)=O)NC1=O [compound 184] (I: [NMeR]SDTLC[Tic][dE][dK]-NH2 / II: [NMeR]SDTLC[Tic][dE][dK]-NH2; linker I:9-II:9 via Diglycolyl; linker I:N-I:6, II:N-II:6 via X1)",100 to 1000 nM,> 100000 nM,> 3 h,>180 min,–,–
"CC(C)C[C@@H]1NC(=O)[C@H]([C@@H](C)O)NC(=O)[C@H](CC(=O)O)NC(=O)[C@H](CO)NC(=O)[C@H](CCCNC(=N)N)N(C)C(=O)c2ccccc2CSC[C@H](C(=O)N[C@@H](Cc2c[nH]c3ccccc23)C(=O)N[C@@H](CCC(=O)O)CC(=O)N[C@H](CCCCNC(=O)COCC(=O)NCCCC[C@@H](NC(=O)C[C@H](CCC(=O)O)NC(=O)[C@H](Cc2c[nH]c3ccccc23)NC(=O)[C@H]2CSCc3ccccc3C(=O)N(C)[C@@H](CCCNC(=N)N)C(=O)N[C@@H](CO)C(=O)N[C@@H](CC(=O)O)C(=O)N[C@@H]([C@@H](C)O)C(=O)N[C@@H](CC(C)C)C(=O)N2)C(N)=O)C(N)=O)NC1=O [compound 156] (I: [NMeR]SDTL[dC]W[β3hE][dK]-NH2 / II: [NMeR]SDTL[dC]W[β3hE][dK]-NH2; linker I:9-II:9 via Diglycolyl; linker I:N-I:6, II:N-II:6 via X1)",25 to 100 nM,> 100000 nM,–,–,> 3 h,–
"CC(C)C[C@@H]1NC(=O)[C@H]([C@@H](C)O)NC(=O)[C@H](CC(=O)O)NC(=O)[C@H](CO)NC(=O)[C@H](CCCNC(=N)N)N(C)C(=O)c2ccccc2CSC(C)(C)[C@@H](C(=O)N[C@@H](Cc2cccc3ccccc23)C(=O)N[C@H](CCC(=O)O)C(=O)N[C@H](CCCCNC(=O)COCC(=O)NCCCC[C@@H](NC(=O)[C@@H](CCC(=O)O)NC(=O)[C@H](Cc2cccc3ccccc23)NC(=O)[C@H]2NC(=O)[C@H](CC(C)C)NC(=O)[C@H]([C@@H](C)O)NC(=O)[C@H](CC(=O)O)NC(=O)[C@H](CO)NC(=O)[C@H](CCCNC(=N)N)N(C)C(=O)c3ccccc3CSC2(C)C)C(N)=O)C(N)=O)NC1=O [compound 158] (I: [NMeR]SDTL[Pen][1Nal][dE][dK]-NH2 / II: [NMeR]SDTL[Pen][1Nal][dE][dK]-NH2; linker I:9-II:9 via Diglycolyl; linker I:N-I:6, II:N-II:6 via X1)",100 to 1000 nM,> 100000 nM,> 3 h,–,–,–
"CC(C)C[C@@H]1NC(=O)[C@H]([C@@H](C)O)NC(=O)[C@H](CC(=O)O)NC(=O)[C@H](CO)NC(=O)[C@H](CCCNC(=N)N)N(C)C(=O)c2ccccc2CSC(C)(C)[C@@H](C(=O)N[C@@H](Cc2ccc(-c3ccccc3)cc2)C(=O)N[C@H](CCC(=O)O)C(=O)N[C@H](CCCCNC(=O)COCC(=O)NCCCC[C@@H](NC(=O)[C@@H](CCC(=O)O)NC(=O)[C@H](Cc2ccc(-c3ccccc3)cc2)NC(=O)[C@H]2NC(=O)[C@H](CC(C)C)NC(=O)[C@H]([C@@H](C)O)NC(=O)[C@H](CC(=O)O)NC(=O)[C@H](CO)NC(=O)[C@H](CCCNC(=N)N)N(C)C(=O)c3ccccc3CSC2(C)C)C(=O)O)C(=O)O)NC1=O [compound 208] (I: [NMeR]SDTL[Pen][Bip][dE][dK]-OH / II: [NMeR]SDTL[Pen][Bip][dE][dK]-OH; linker I:9-II:9 via Diglycolyl; linker I:N-I:6, II:N-II:6 via X1)",25 to 100 nM,> 100000 nM,–,–,> 3 h,–
